Measured values reported in ChEMBL document CHEMBL1201862, “PubChem BioAssay data set” (2004).
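Growth conditions: 96-well plates. Treatment: test compound, 48 hours, 5 concentrations. Analysis: linear interpolation between bracketing concentrations; unreached endpoints set to highest concentration. The concentration for 50% growth inhibition is given as GI50.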 Active and inactive are the calls of the source. No stated cut-off is given here; in the data, active = GI50 up to about 1.1 µM and inactive = higher.

Legend:
Assay in all cases: growth of human tumour cells (NCI), 48 h
Hs-578T = system: Hs-578T
SK-OV-3 = system: SK-OV-3
SK-MEL-5 = system: SK-MEL-5
MCF7 = system: MCF7
A498 = system: A498
COLO 205 = system: COLO 205
TK-10 = system: TK-10
DU-145 = system: DU-145
SW-620 = system: SW-620
HCC 2998 = system: HCC 2998
786-0 = system: 786-0
MDA-MB-231 = system: MDA-MB-231
OVCAR-3 = system: OVCAR-3
IGROV-1 = system: IGROV-1
SNB-19 = system: SNB-19
ACHN = system: ACHN
SR = system: SR
OVCAR-4 = system: OVCAR-4
CCRF-CEM = system: CCRF-CEM

Measured: GI50

COC(=O)C1CC(C=[N+](C)C)=C(SC)N1C(=O)OCc1ccccc1 (stereo not drawn)
inactive: Hs-578T > 100 µM | SK-OV-3 > 100 µM | SK-MEL-5 > 100 µM | MCF7 95.9 µM | A498 > 100 µM | COLO 205 > 100 µM | TK-10 > 100 µM | DU-145 > 100 µM | SW-620 > 100 µM | HCC 2998 > 100 µM | 786-0 > 100 µM | MDA-MB-231 > 100 µM | OVCAR-3 > 100 µM | IGROV-1 > 100 µM | SNB-19 > 100 µM | ACHN > 100 µM | SR > 100 µM | OVCAR-4 > 100 µM

CN(C)N1C(=C(C#N)C#N)C(c2ccccc2)CC1C#N (stereo not drawn)
inactive: Hs-578T > 100 µM | SK-OV-3 > 100 µM | SK-MEL-5 > 100 µM | MCF7 > 100 µM | A498 > 100 µM | COLO 205 > 100 µM | TK-10 > 100 µM | DU-145 > 100 µM | SW-620 > 100 µM | HCC 2998 > 100 µM | 786-0 > 100 µM | MDA-MB-231 > 100 µM | CCRF-CEM > 100 µM | IGROV-1 > 100 µM | SNB-19 > 100 µM | ACHN > 100 µM | SR > 10 µM

N#Cc1c(Cl)c(C=O)c(=O)n2c1[nH]c1ccccc12
inactive: Hs-578T 45.1 µM | SK-OV-3 > 100 µM | SK-MEL-5 91.8 µM | MCF7 33.3 µM | A498 31.7 µM | COLO 205 59.7 µM | TK-10 > 100 µM | DU-145 50.4 µM | SW-620 77.4 µM | HCC 2998 > 100 µM | 786-0 55.7 µM | MDA-MB-231 31.8 µM | OVCAR-3 20.1 µM | CCRF-CEM 40.4 µM | IGROV-1 > 100 µM | SNB-19 63.8 µM | ACHN 84.3 µM | SR 10 µM | OVCAR-4 84.5 µM

Brc1ccc2c(-c3nc(-c4c[nH]c5ccccc45)cs3)c[nH]c2c1
inactive: Hs-578T > 100 µM | SK-OV-3 > 100 µM | SK-MEL-5 22.1 µM | MCF7 28.8 µM | A498 22.7 µM | COLO 205 19.4 µM | TK-10 12.7 µM | DU-145 23.4 µM | SW-620 35.4 µM | HCC 2998 24 µM | 786-0 21 µM | MDA-MB-231 47.1 µM | OVCAR-3 39.7 µM | CCRF-CEM 27.4 µM | IGROV-1 30.5 µM | SNB-19 41.9 µM | ACHN 43.1 µM | SR 13.2 µM | OVCAR-4 > 53.5 µM

O=C1CSC(c2cccc(Oc3ccccc3)c2)N1c1cccc(Cl)c1Cl (stereo not drawn)
inactive: Hs-578T 27.8 µM | SK-OV-3 65.9 µM | SK-MEL-5 18.4 µM | MCF7 13.7 µM | A498 26.1 µM | COLO 205 20 µM | TK-10 34.6 µM | DU-145 45 µM | SW-620 29.1 µM | HCC 2998 12.3 µM | 786-0 27.7 µM | MDA-MB-231 22.3 µM | OVCAR-3 30.5 µM | CCRF-CEM 18.5 µM | SNB-19 42.8 µM | ACHN 20.7 µM | SR 19.8 µM | OVCAR-4 23.2 µM

Cc1ccc([N+](=O)[O-])c2c(NCCNC(=O)c3cc(C(=O)NCCNc4ccnc5c(C)ccc([N+](=O)[O-])c45)n(C)n3)ccnc12
inactive: Hs-578T > 87.3 µM | SK-OV-3 > 100 µM | SK-MEL-5 32.1 µM | MCF7 > 21.5 µM | A498 > 57.4 µM | COLO 205 > 100 µM | TK-10 > 80.7 µM | DU-145 > 100 µM | SW-620 32.9 µM | HCC 2998 > 100 µM | 786-0 > 56 µM | MDA-MB-231 > 54 µM | OVCAR-3 > 80.9 µM | CCRF-CEM 36 µM | IGROV-1 > 100 µM | SNB-19 > 100 µM | ACHN > 100 µM | SR 55.1 µM | OVCAR-4 > 49.1 µM

COc1cc(-c2cc(OC)c(OC)c3ccc(Br)cc23)c2cc(Br)ccc2c1OC
inactive: Hs-578T 38.8 µM | SK-OV-3 30.8 µM | SK-MEL-5 32.3 µM | MCF7 47.2 µM | A498 23.8 µM | COLO 205 39.5 µM | TK-10 31.1 µM | DU-145 29 µM | SW-620 80.5 µM | HCC 2998 36.1 µM | 786-0 19.8 µM | MDA-MB-231 22.4 µM | OVCAR-3 21 µM | IGROV-1 23.9 µM | SNB-19 39.5 µM | ACHN 22.1 µM | SR 34.4 µM | OVCAR-4 15 µM
